Entries after “also recorded” stand apart in the source; their conditions may differ. Where two headings read alike, the source gives them in different places. Where a SMILES comes first, the peptide text is derived from it.
Assays:
IGROV1 = IGROV1 (ovary, AC); 2-Day Assay; Conc. 10^−1 Molar
[1] = system: human kidney tumor cell line
ACHN = ACHN (kidney, renal CA); 2-Day Assay; Conc. 10^−2 Molar
SF-539 = SF-539 (central nervous system, CA)
MDA-MB-231 = MDA-MB-231 (breast, AC); 6-Day Assay; Conc. 10^−7 only Molar
MDA-MB-435 = MDA-MB-435 (breast, AC); 2-Day Assay; Conc. 10^−1 Molar
Molt-4 = Molt-4 (white blood cell, leukemia); 2-Day Assay; Conc. 10^−2 Molar
DU-145 = DU-145 (prostate, AC); 2-Day Assay; Conc. 10^−1 Molar
HCC-299 = HCC-299 (colon, AC); 2-Day Assay; Conc. 10^−1 Molar
MCF-7 = MCF-7 (breast, AC); 2-Day Assay; Conc. 10^−2 Molar
U-251 = U-251 (central nervous system, CA); 2-Day Assay; Conc. 10^−2 Molar
60 cancer cell lines = assay: NCI screen of 60 cancer cell lines, 2 day versus 6-day sulforhodamine assay; assay type: cell-based, human; settings: nine different cancer cell types
Source text: These findings detailed the in vitro results of the GIP challenges against 60 different cell culture lines representing a variety of human cancers.

SK-MeL-5 = SK-MeL-5 (melanoma, squamous)
Colo-205 = Colo-205 (colon, AC)
PC-3 = PC-3 (prostate, AC); 2-Day Assay; Conc. 10^−1 Molar
T-47D = T-47D (breast, AC)
NCI-H226 = NCI-H226 (non-small cell lung, CA)
OVCAR-3 = OVCAR-3 (ovary, AC); 2-Day Assay; Conc. 10^−2 Molar
CCRF-CEM = CCRF-CEM (white blood cell, leukemia)
NCI-H460 = NCI-H460 (non-small cell lung, CA); 2-Day Assay; Conc. 10^−2 Molar
RXF-393 = RXF-393 (kidney, renal CA); 2-Day Assay; Conc. 10^−1 Molar
UACC-257 = UACC-257 (melanoma, squamous); 2-Day Assay; Conc. 10^−2 Molar
K-562 = K-562 (white blood cell, leukemia); 6-Day Assay; Conc. 10^−7 Molar
MCF-7 and GI-101 cells = assay: ATP luminescence cytostatic assay (6 days); assay type: cell-based, human; settings: peptide 10^−12 to 10^−8 M
Source text: FIG. 2 presents exemplary data for both in vivo and in vitro growth suppressive activities of the GIP-derived P149 and control peptides are depicted in GI-101 human ductal breast carcinoma and in MCF-7 human glandular breast carcinoma. • Panels A and A2: GI-101 and MCF-7 xenograft in nude mice administered P149 time-release pellets for 60 days and 30 days, respectively (N=5 mice/group). • Panels B and B2: GI-101 and MCF-7 in cell cultures treated with P149 and P187 at concentrations from 10-8 to 10-12 M for 6 days and assayed by ATP luminescence reagent employing a luciferin-luciferase system. The ATP assay, used to distinguish between cytostasis versus cytotoxicity, was used to confirm that P149 was cytostatic in its cell inhibitory activity at 6 days (see text for details).
In order to confirm whether P149 was indeed cytostatic, and not cytotoxic, an ATP-based cytostatic assay was performed which measures the decrease in cytosolic ATP during drug (i.e., for example, GIP peptide) treatment. This ATP luminescence assay has long been employed to distinguish between cytostatic versus cytotoxic chemotherapeutic sensitivity of drugs. […] After incubation of the cell cultures for 6 days, cytosolic ATP was extracted, stabilized, and quantitated from a standard curve produced from Berthold LB-96P luminometer readings using a luciferin-luciferase counting reagent.

[2] = system: 6WI-1 mammary tumor cells; assay: 6WI-1 mammary tumor in 15-day old mouse pups (6 day assay); assay type: in vivo; settings: mouse, in vivo
Source text: As an alternative model of the 6WI-I mammary tumor in adult mice, an inocula of 1×10^6 tumor cells injected into 15-day old mouse pups provided a 6 day rather than a 12 day assay and replicated the same tumor growth suppression by GIP.

**Q.** `CC[C@H](C)[C@H](NC(=O)[C@H](CS)NC(=O)[C@H](CC(C)C)NC(=O)[C@H](Cc1c[nH]cn1)NC(=O)CNC(=O)[C@@H](NC(=O)[C@@H](NC(=O)[C@@H](NC(=O)[C@H](CC(=O)O)NC(=O)[C@H](C)NC(=O)[C@H](C)NC(=O)CNC(=O)[C@H](CCC(=O)O)NC(=O)CNC(=O)[C@H](CS)NC(=O)[C@H](C)NC(=O)[C@H](CC(C)C)NC(=O)[C@H](CC(C)C)NC(=O)[C@H](CCCCN)NC(=O)[C@H](CC(=O)O)NC(=O)[C@H](CCC(=O)O)NC(=O)[C@H](CO)NC(=O)[C@@H](N)CC(C)C)[C@@H](C)CC)[C@@H](C)CC)[C@@H](C)CC)C(=O)N[C@@H](CCCNC(=N)N)C(=O)N[C@@H](Cc1c[nH]cn1)C(=O)N[C@@H](CCC(=O)O)C(=O)N[C@@H](CCSC)C(=O)N[C@H](C(=O)N1CCC[C@H]1C(=O)N[C@H](C(=O)N[C@@H](CC(N)=O)C(=O)N1CCC[C@H]1C(=O)NCC(=O)N[C@H](C(=O)O)C(C)C)C(C)C)[C@@H](C)O` [P149] (H-LSEDKLLACGEGAADIIIGHLCIRHEMTPVNPGV-OH) was tested. Which “% Growth Inhibition” value (IGROV1) did it give?
**A.** The value was 10%.

**Q.** What about the “% Inhibition Of Activity: Kidney tumor growth” value [1] of the same molecule?
**A.** Its value is 70%.

**Q.** What about the “% Growth Inhibition” value (ACHN) of the same molecule?
**A.** Its value is 20%.

**Q.** And the “% Growth Inhibition” value (SF-539; 2-Day Assay, Conc. 10^−2 Molar)?
**A.** The value was 10%.

**Q.** And the “% Growth Inhibition” value (SF-539; 6-Day Assay, Conc. 10^−5 Molar)?
**A.** The value was 15-20%.

**Q.** What about the “% Growth Inhibition” value (MDA-MB-231) of the same molecule?
**A.** Its value is 80%.

**Q.** What about the “% Growth Inhibition” value (MDA-MB-435) of the same molecule?
**A.** Its value is 20%.

**Q.** What about the “% Growth Inhibition” value (Molt-4) of the same molecule?
**A.** The value was 5%.

**Q.** And the “% Growth Inhibition” value (DU-145)?
**A.** Its value is 10%.

**Q.** What about the “% Growth Inhibition” value (HCC-299) of the same molecule?
**A.** Its value is 20%.

**Q.** What about the “% Growth Inhibition” value (MCF-7) of the same molecule?
**A.** Its value is 20%.

**Q.** What about the “% Growth Inhibition” value (U-251) of the same molecule?
**A.** The value was 15%.

**Q.** What about the “Number of the 60 cancer cell lines against which the peptide appeared cytostatic (not cytotoxic)” value (60 cancer cell lines) of the same molecule?
**A.** The value was 38.

**Q.** And the “% Growth Inhibition” value (SK-MeL-5; 2-Day Assay, Conc. 10^−2 Molar)?
**A.** Its value is 5%.

**Q.** What about the “% Growth Inhibition” value (SK-MeL-5; 6-Day Assay, Conc. 10^−5 Molar) of the same molecule?
**A.** The value was 10%.

**Q.** What about the “% Growth Inhibition” value (Colo-205; 2-Day Assay, Conc. 10^−2 Molar) of the same molecule?
**A.** The value was 10%.

**Q.** And the “% Growth Inhibition” value (Colo-205; 6-Day Assay, Conc. 10^−5 Molar)?
**A.** The value was 10%.

**Q.** What about the “% Growth Inhibition” value (PC-3) of the same molecule?
**A.** Its value is 5%.

**Q.** And the “% Growth Inhibition” value (T-47D; 2-Day Assay, Conc. 10^−2 Molar)?
**A.** Its value is 10%.

**Q.** And the “% Growth Inhibition” value (T-47D; 6-Day Assay, Conc. 10^−5 Molar)?
**A.** Its value is 25%.

**Q.** And the “% Growth Inhibition” value (NCI-H226; 2-Day Assay, Conc. 10^−2 Molar)?
**A.** Its value is 5%.

**Q.** And the “% Growth Inhibition” value (NCI-H226; 6-Day Assay, Conc. 10^−5 Molar)?
**A.** The value was 5-10%.

**Q.** What about the “% Growth Inhibition” value (OVCAR-3) of the same molecule?
**A.** The value was 20%.

**Q.** And the “% Growth Inhibition” value (CCRF-CEM; 2-Day Assay, Conc. 10^−2 Molar)?
**A.** The value was 5%.

**Q.** What about the “% Growth Inhibition” value (CCRF-CEM; 6-Day Assay, Conc. 10^−5 Molar) of the same molecule?
**A.** Its value is 5-10%.

**Q.** What about the “% Growth Inhibition” value (NCI-H460) of the same molecule?
**A.** Its value is 30%.

**Q.** What about the “% Growth Inhibition” value (RXF-393) of the same molecule?
**A.** Its value is 30%.

**Q.** And the “% Growth Inhibition” value (UACC-257)?
**A.** Its value is 20%.

**Q.** And the “% Growth Inhibition” value (K-562)?
**A.** The value was 45%.

**Q.** What does the source list for “LSENKLLACGEGAANIIIGHLCIRHEMTPVNPGV (listed as Homo sapiens) [P187]”?
**A.** Growth inhibition / decrease in cytosolic ATP in the ATP luminescence assay (MCF-7 and GI-101 cells): significantly different; also recorded: equally responsive as P149 at 10^−8 M; Growth inhibitory potency in the mouse pup model compared with P149 [2]: slightly less growth inhibitory potency
